Results on seven compounds are retold here after PubChem BioAssay AID1259407 (Chemical Carcinogenesis Research Information System (CCRIS), 2018).

The series relates to CCRIS mutagenicity, Ames/micronucleus/aberration tests. Nature of the series: CCRIS mutagenicity studies.
[1] abbreviates: Test System: AMES SALMONELLA TYPHIMURIUM, Strain/Indicator: TA98, Metabolic Activation: NONE, Method: PREINCUBATION
The mark [2] stands for this setting: Test System: AMES SALMONELLA TYPHIMURIUM, Strain/Indicator: TA100, Metabolic Activation: NONE, Method: PREINCUBATION
The mark [3] stands for this setting: Test System: AMES SALMONELLA TYPHIMURIUM, Strain/Indicator: TA100, Metabolic Activation: RAT, LIVER, S-9, PCB, Method: PREINCUBATION

Active and inactive are the calls of the source. The rule behind the calls is not given here.

For `NC(=O)CNC(=O)N(CCCl)N=O`, the mutagenic call (Test System: AMES SALMONELLA TYPHIMURIUM, Strain/Indicator: TA1535, Metabolic Activation: NONE, Method: STANDARD PLATE) is “active; positive”.

Take `CCOC(=O)c1[nH]c2ccccc2c1N=Cc1ccc(O)cc1`: the mutagenic call (Test System: AMES SALMONELLA TYPHIMURIUM, Strain/Indicator: TA97, Metabolic Activation: NONE, Method: STANDARD PLATE) was “active; positive”; the mutagenic call (Test System: AMES SALMONELLA TYPHIMURIUM, Strain/Indicator: TA97, Metabolic Activation: RAT, LIVER, S-9, AROCLOR 1254, Method: STANDARD PLATE) was “inactive; negative”; the mutagenic call (Test System: AMES SALMONELLA TYPHIMURIUM, Strain/Indicator: TA98, Metabolic Activation: NONE, Method: STANDARD PLATE) is “inactive; negative”; the mutagenic call (Test System: AMES SALMONELLA TYPHIMURIUM, Strain/Indicator: TA98, Metabolic Activation: RAT, LIVER, S-9, AROCLOR 1254, Method: STANDARD PLATE) was “inactive; negative”; the mutagenic call (Test System: AMES SALMONELLA TYPHIMURIUM, Strain/Indicator: TA100, Metabolic Activation: NONE, Method: STANDARD PLATE) was “inactive; negative”; the mutagenic call (Test System: AMES SALMONELLA TYPHIMURIUM, Strain/Indicator: TA100, Metabolic Activation: RAT, LIVER, S-9, AROCLOR 1254, Method: STANDARD PLATE) was “inactive; negative”. For the same compound, the mutagenic call is “inactive; negative” (Test System: AMES SALMONELLA TYPHIMURIUM, Strain/Indicator: TA102, Metabolic Activation: NONE, Method: STANDARD PLATE) and “inactive; negative” (Test System: AMES SALMONELLA TYPHIMURIUM, Strain/Indicator: TA102, Metabolic Activation: RAT, LIVER, S-9, AROCLOR 1254, Method: STANDARD PLATE).

As to `CCC(=O)O`, the mutagenic call is “inactive; negative” (Test System: AMES SALMONELLA TYPHIMURIUM, Strain/Indicator: TA97, Metabolic Activation: HAMSTER, LIVER, S-9, AROCLOR 1254 (10 OR 30%), Method: PREINCUBATION); “inactive; negative” (Test System: AMES SALMONELLA TYPHIMURIUM, Strain/Indicator: TA97, Metabolic Activation: NONE, Method: PREINCUBATION); “inactive; negative” (Test System: AMES SALMONELLA TYPHIMURIUM, Strain/Indicator: TA97, Metabolic Activation: RAT, LIVER, S-9, AROCLOR 1254 (10 OR 30%), Method: PREINCUBATION); “inactive; negative” (Test System: AMES SALMONELLA TYPHIMURIUM, Strain/Indicator: TA97A, Metabolic Activation: NONE, Method: PREINCUBATION); “inactive; negative” (Test System: AMES SALMONELLA TYPHIMURIUM, Strain/Indicator: TA97A, Metabolic Activation: RAT, LIVER, S-9, AROCLOR 1254, Method: PREINCUBATION); “inactive; negative” (Test System: AMES SALMONELLA TYPHIMURIUM, Strain/Indicator: TA98, Metabolic Activation: HAMSTER, LIVER, S-9, AROCLOR 1254 (10 OR 30%), Method: PREINCUBATION). Further, the mutagenic call runs as follows: under setting [1], “inactive; negative”; (Test System: AMES SALMONELLA TYPHIMURIUM, Strain/Indicator: TA98, Metabolic Activation: RAT LIVER S-9, PHENOBARBITAL AND BETA-NAPHTHOFLAVONE, Method: PREINCUBATION) “inactive; negative”; (Test System: AMES SALMONELLA TYPHIMURIUM, Strain/Indicator: TA98, Metabolic Activation: RAT, LIVER, S-9, AROCLOR 1254 (10 OR 30%), Method: PREINCUBATION) “inactive; negative”; (Test System: AMES SALMONELLA TYPHIMURIUM, Strain/Indicator: TA100, Metabolic Activation: HAMSTER, LIVER, S-9, AROCLOR 1254 (10 OR 30%), Method: PREINCUBATION) “inactive; negative”; under setting [2], “inactive; negative”; (Test System: AMES SALMONELLA TYPHIMURIUM, Strain/Indicator: TA100, Metabolic Activation: RAT LIVER S-9, PHENOBARBITAL AND BETA-NAPHTHOFLAVONE, Method: PREINCUBATION) “inactive; negative”. Also, the mutagenic call reads like this: (Test System: AMES SALMONELLA TYPHIMURIUM, Strain/Indicator: TA100, Metabolic Activation: RAT, LIVER, S-9, AROCLOR 1254 (10 OR 30%), Method: PREINCUBATION) “inactive; negative”; (Test System: AMES SALMONELLA TYPHIMURIUM, Strain/Indicator: TA102, Metabolic Activation: NONE, Method: PREINCUBATION) “inactive; negative”; (Test System: AMES SALMONELLA TYPHIMURIUM, Strain/Indicator: TA102, Metabolic Activation: RAT, LIVER, S-9, AROCLOR 1254, Method: PREINCUBATION) “inactive; negative”; (Test System: AMES SALMONELLA TYPHIMURIUM, Strain/Indicator: TA1535, Metabolic Activation: HAMSTER, LIVER, S-9, AROCLOR 1254 (10 OR 30%), Method: PREINCUBATION) “inactive; negative”; (Test System: AMES SALMONELLA TYPHIMURIUM, Strain/Indicator: TA1535, Metabolic Activation: NONE, Method: PREINCUBATION) “inactive; negative”; (Test System: AMES SALMONELLA TYPHIMURIUM, Strain/Indicator: TA1535, Metabolic Activation: RAT LIVER S-9, PHENOBARBITAL AND BETA-NAPHTHOFLAVONE, Method: PREINCUBATION) “inactive; negative”. Besides, the mutagenic call (Test System: AMES SALMONELLA TYPHIMURIUM, Strain/Indicator: TA1535, Metabolic Activation: RAT, LIVER, S-9, AROCLOR 1254 (10 OR 30%), Method: PREINCUBATION) is “inactive; negative”; the mutagenic call (Test System: AMES SALMONELLA TYPHIMURIUM, Strain/Indicator: TA1537, Metabolic Activation: HAMSTER, LIVER, S-9, AROCLOR 1254 (30%), Method: PREINCUBATION) is “inactive; negative”; the mutagenic call (Test System: AMES SALMONELLA TYPHIMURIUM, Strain/Indicator: TA1537, Metabolic Activation: NONE, Method: PREINCUBATION) is “inactive; negative”; the mutagenic call (Test System: AMES SALMONELLA TYPHIMURIUM, Strain/Indicator: TA1537, Metabolic Activation: RAT LIVER S-9, PHENOBARBITAL AND BETA-NAPHTHOFLAVONE, Method: PREINCUBATION) is “inactive; negative”; the mutagenic call (Test System: AMES SALMONELLA TYPHIMURIUM, Strain/Indicator: TA1537, Metabolic Activation: RAT, LIVER, S-9, AROCLOR 1254 (30%), Method: PREINCUBATION) was “inactive; negative”; the mutagenic call (Test System: E.COLI, Strain/Indicator: WP2UVRA/PKM101, Metabolic Activation: NONE, Method: PREINCUBATION) is “inactive; negative”. In addition, under “Test System: E.COLI, Strain/Indicator: WP2UVRA/PKM101, Metabolic Activation: RAT LIVER S-9, PHENOBARBITAL AND BETA-NAPHTHOFLAVONE, Method: PREINCUBATION”, the mutagenic call was “inactive; negative”.

In the case of `CNC(=O)CN(CCN(CCN(CC(=O)O)CC(=O)NC)CC(=O)O)CC(=O)O`, the mutagenic call (Test System: AMES SALMONELLA TYPHIMURIUM, Strain/Indicator: TA98, Metabolic Activation: NONE) is “inactive; negative”; the mutagenic call (Test System: AMES SALMONELLA TYPHIMURIUM, Strain/Indicator: TA98, Metabolic Activation: RAT, LIVER, S-9, AROCLOR 1254) was “inactive; negative”; the mutagenic call (Test System: AMES SALMONELLA TYPHIMURIUM, Strain/Indicator: TA100, Metabolic Activation: NONE) was “inactive; negative”; the mutagenic call (Test System: AMES SALMONELLA TYPHIMURIUM, Strain/Indicator: TA100, Metabolic Activation: RAT, LIVER, S-9, AROCLOR 1254) is “inactive; negative”; the mutagenic call (Test System: AMES SALMONELLA TYPHIMURIUM, Strain/Indicator: TA1535, Metabolic Activation: NONE) is “inactive; negative”; the mutagenic call (Test System: AMES SALMONELLA TYPHIMURIUM, Strain/Indicator: TA1535, Metabolic Activation: RAT, LIVER, S-9, AROCLOR 1254) is “inactive; negative”. The mutagenic call by setting is: (Test System: AMES SALMONELLA TYPHIMURIUM, Strain/Indicator: TA1537, Metabolic Activation: NONE) “inactive; negative”; (Test System: AMES SALMONELLA TYPHIMURIUM, Strain/Indicator: TA1537, Metabolic Activation: RAT, LIVER, S-9, AROCLOR 1254) “inactive; negative”; (Test System: CHINESE HAMSTER OVARY, Strain/Indicator: CHO-K1-BH4 (HGPRT)/6-THIOGUANINE, Metabolic Activation: NONE) “inactive; negative”; (Test System: CHINESE HAMSTER OVARY, Strain/Indicator: CHO-K1-BH4 (HGPRT)/6-THIOGUANINE, Metabolic Activation: RAT, LIVER, S-9, AROCLOR 1254) “inactive; negative”; (Test System: E.COLI, Strain/Indicator: WP2 UVRA, Metabolic Activation: NONE) “inactive; negative”; (Test System: E.COLI, Strain/Indicator: WP2 UVRA, Metabolic Activation: RAT, LIVER, S-9, AROCLOR 1254) “inactive; negative”.

With `Cc1cccc(C)c1NO`, the mutagenic call under setting [2] is “active; positive” and the mutagenic call under setting [3] is “active; positive”.

As for `O=S(=O)(O)OCc1cc2ccccc2c2ccc3ccccc3c12`, under setting [1], the mutagenic call is “active; positive”.

Regarding `N#CCCC(=O)/C=C/c1ccc(C(=O)O)cc1`, the mutagenic call runs as follows: under setting [1], “inactive; negative”; (Test System: AMES SALMONELLA TYPHIMURIUM, Strain/Indicator: TA98, Metabolic Activation: RAT, LIVER, S-9, PCB, Method: PREINCUBATION) “inactive; negative”; under setting [2], “inactive; negative”; under setting [3], “inactive; negative”.
